# Data as given in patent publication US11058685B2, “Therapeutic agent for tumors identified by phosphorylation of proto-oncogene protein belonging to VAV family” (priority 2016, dated 2021).
# How the values were obtained:
# VAV1 [1] = test: VAV1 Y174 phosphorylation (Western blot) in Jurkat cells expressing G17V RHOA mutant, anti-CD3 stimulation; assay type: cell-based, human; details: dasatinib 0 to 10 nM, 30 minutes, FIG. 7(A)
# Protocol: (§1) (1) Jurkat cells (T-cell leukemia cell line) engineered with a lentivirus-mediated Tet-On system to express wild-type RHOA cDNA or a RHOA coding region modified to comprise a G to T substitution at position 50 of the coding region (hereinafter referred to as G17V RHOA cDNA) were seeded in RPMI (10% FCS, 1% PS) at 2×10^5 cells/mL in 15 cm petri dishes in triplicate. Doxycycline was added to give a final concentration of 2 μg/mL. On the following day, the cells were collected and centrifuged, and then seeded in RPMI (serum-free) at 6×10^5 cells/mL in 15 cm petri dishes in triplicate. After 4 hours, the cells were collected and washed once with sterile phosphate buffered saline (PBS), and then adjusted to 2×10^4 cells/ml and transferred to 15 ml tubes, followed by incubation at 37° C. for 5 minutes. LEAF™ purified anti-human CD3 Ab (BioLegend) and anti-mouse IgG antibody Ab (at 2 μg/ml each) were added. The cells were incubated at 37° C. for 5 minutes or 30 minutes. Cold PBS (10 ml) was added to each tube, followed by centrifugation to remove the supernatants. Lysis buffer (supplemented in advance with complete protease inhibitor and PhosSTOP) was added in a volume of 1000 μl/tube. The tubes were incubated on ice for 20 minutes and centrifuged to collect the supernatants. Laemuli's buffer and DTT were added, followed by incubation at 95° C. for 5 minutes. […]
# PLC-gamma 1 = PLC-gamma 1 phosphorylation (Western blot) in Jurkat cells expressing G17V RHOA mutant; assay type: cell-based, human; details: dasatinib 0 to 10 nM, 30 minutes, FIG. 7(B)
# Protocol: as §1
# [2] = system: interleukin-2 mRNA expression; test: Interleukin-2 mRNA expression in Jurkat cells expressing G17V RHOA mutant, CD3/CD28 bead stimulation; assay type: cell-based, human; details: dasatinib 0 to 10 nM, CD3/CD28 beads, 3 hours, FIG. 8
# Protocol: Dynabeads T-activator CD3/CD28 (Veritas) were mixed with buffer (PBS supplemented with 0.1% BSA+2 mM EDTA, pH 7.4) and allowed to stand on a magnetic rack to remove the supernatant.
# Jurkat cells engineered with a lentivirus-mediated Tet-On system to express wild-type or G17V RHOA cDNA were seeded in RPMI (10% FCS, 1% PS) at 2×10^5 cells/mL in 15 cm petri dishes in triplicate. Doxycycline was added to give a final concentration of 2 μg/mL. On the following day, the cells were collected and seeded in a 24-well plate. The Dynabeads T-activator CD3/CD28 (Veritas) washed above were added. After 3 and 6 hours, the cells were collected. The cells were washed once with PBS and their RNA was extracted with an RNeasy Mini Kit (Qiagen). […] IL-2 mRNA was measured with the primer/probe sets of Taqman Gene Expression Assays (Thermo Fisher Scientific). rRNA was measured with TaqMan® Ribosomal RNA Control Reagents (Thermo Fisher Scientific) and used for correction.
# Jurkat cells engineered with a lentivirus-mediated Tet-On system to express wild-type RHOA or G17V RHOA cDNA were seeded in RPMI (10% FCS, 1% PS) at 2×10^5 cells/mL in 15 cm petri dishes in triplicate. […] IL-2 mRNA was measured with the primer/probe sets of Taqman Gene Expression Assays (Thermo Fisher Scientific). rRNA was measured with TaqMan® Ribosomal RNA Control Reagents (Thermo Fisher Scientific) and used for correction.
# VAV1 [3] = test: VAV1 Y174 phosphorylation in Jurkat cells expressing VAV1 mutant, anti-CD3 stimulation; assay type: cell-based, human; details: dasatinib 0 to 10 nM, 30 minutes, FIG. 15
# NFAT activity = test: NFAT luciferase reporter activity in Jurkat cells expressing VAV1 mutant; assay type: cell-based, human; details: dasatinib 0 to 10 nM, 30 minutes, anti-CD3 stimulation, FIG. 16
# Protocol: In accordance with the protocol of Dual Luciferase Reporter Assay (Promega), firefly luciferase activity and renilla luciferase activity were each measured, and the value of firefly luciferase was divided by the value of renilla luciferase to correct the transfection efficiency. In more detail, the cells were mixed with Passive Lysis Buffer (PLB) in a volume of 100 μl/tube, followed by freezing at −80° C. to lyse the cells. After centrifugation, the supernatants were collected. In a 96-well plate. LARII was dispensed in a volume of 100 μl/well. 20 μl of each cell lysate was added. The plate was mounted on a luminometer and Stop & Glo® Reagent was added in 100 μL volumes, followed by measurement again with the luminometer.
# In a 96-well flat-bottomed plate, LEAF™ purified anti-human CD3 Ab (BioLegend) adjusted to 10 μg/ml with PBS was dispensed in a volume of 50 μL/well and incubated overnight at 4° C. After removal of the antibody solution, each well was washed three times with sterile PBS.
# Jurkat cells were seeded at 5×10^4 cells/well in a 24-well plate. […] After 30 minutes, the cells were collected and then stimulated with LEAF™ purified anti-human CD3 Ab (BioLegend) and measured for firefly luciferase activity and renilla luciferase activity by reference to Example 3 described above, etc.
# [4] = system: angioimmunoblastic T-cell lymphoma (AITL) model mice; test: AITL therapeutic transplant model: nude mice injected with donor mouse swollen lymph node-derived cells; assay type: in vivo
# Protocol: An AITL model is regarded as having been established, but a long incubation period is required to observe oncogenesis after pIpC administration. For this reason, this genetically modified mouse model is not suitable for use in therapeutic experiments. Thus, an attempt was made to establish a transplant model. […] It should be noted that inflammatory cells migrating to the tumor tissue were composed of donor mouse-derived cells and host mouse-derived cells in admixture.
# Donor mouse swollen lymph node-derived cells (2×10^7 cells) were all intraperitoneally injected into nude mice and, after 2 weeks (after lymph node swelling was observed by echography in some mice), 5 mg/kg of dasatinib dissolved in a solution of propylene glycol:distill water adjusted to 1:1 was orally administered to the mice for successive 14 days (the dasatinib group: “Dasatinib” in FIG. 17). As a control, nude mice under completely the same conditions were administered with the same volume of the solution alone (propylene glycol: distill water=1:1) according to the same schedule (the control group: “Vehicle” in FIG. 17). The results of these administration experiments are show in FIG. 17.
# phosphorylated VAV1 = test: Anti-phosphorylated VAV1 staining of swollen lymph node sections of AITL transplant model mice; assay type: in vivo, mouse; details: nude mice; dasatinib three times daily for 2 days, 2 weeks after cell injection; sacrificed on the following day
# Protocol: In addition, donor mouse swollen lymph node-derived cells (2×10^7 cells) were all intraperitoneal injected into nude mice and, after 2 weeks, dasatinib or a control solution was administered three times daily for 2 days in accordance with the above procedure. On the following day, the nude mice were sacrificed, and thin section specimens were prepared from their swollen lymph nodes and then stained with anti-phosphorylated VAV1 antibody.
# [5] = 5 mg/kg orally for successive 14 days, FIG. 17
smiles,measurement,setting,value
"Cc1nc(Nc2ncc(C(=O)Nc3c(C)cccc3Cl)s2)cc(N2CCN(CCO)CC2)n1 [dasatinib, N-(2-chloro-6-methyl-phenyl)-2-[[6-[4-(2-hydroxyethyl)-1-piperazinyl]-2-methyl-4-pyrimidinyl]amino]-5-thiazolecarboxamide]",enhanced Y174 phosphorylation (VAV1) induced by G17V RHOA mutant expression,VAV1 [1],cancels the enhanced Y174 phosphorylation
same,enhanced PLC-gamma 1 phosphorylation induced by G17V RHOA mutant expression,PLC-gamma 1,cancels the enhanced PLC-gamma 1 phosphorylation
same,enhanced interleukin-2 mRNA expression induced by G17V RHOA mutant expression,[2],cancels the enhanced interleukin-2 mRNA expression
same,enhanced Y174 phosphorylation induced by VAV1 mutant expression,VAV1 [3],cancels the enhanced Y174 phosphorylation
same,enhanced NFAT activity induced by VAV1 mutant expression,NFAT activity,cancels the enhanced NFAT activity
same,mice showing progression of lymphoma (body weight loss and hyposthenia),"[4]; 5 mg/kg orally for successive 14 days starting 2 weeks after cell injection, observation period of 150 days, 6/18",33.3%
same,progression of lymphoma versus control group,[4]; [5],progression was significantly suppressed
same,survival versus control group,[4]; [5],survival was prolonged
same,phosphorylated VAV1 staining in swollen lymph nodes,phosphorylated VAV1,phosphorylated VAV1 was not stained
